Laboratory results reported in patent US20040229268A1, “Method and kit for identifying antibiotic-resistant microorganisms” (priority 2003, published 2004).

Tests used:
Type in all cases: binding, S. aureus
[1] = tested on: mecA gene; Staphylococcus ribosomal nucleic acids; experiment: HPA after thermal lysis, base hydrolysis and neutralization (Examples 5-7)
[2] = tested on: rRNA/rDNA (pan-bacterial probe); mecA target sequence; experiment: HPA after base treatment of specimen or synthetic target (Example 3)
Description: The effect of base treatment on a S. aureus specimen (#102) was evaluated using the pan-bacterial probe reagent. A pelleted sample of the specimen was suspended in 120 μl of lysis buffer and lysed by treatment for 20 minutes in a heat block set at 110° C. A 50 μl aliquot of the lysed specimen was treated with 50 μl of a 0.4 N LiOH solution at 55° C. for 10 minutes, and then neutralized with the addition of 50 μl of 0.4 N HCl and buffered with 50 μl of a 1× hybridization buffer (0.6 M LiCl, 1% lithium lauryl sulfate, 10 mM EDTA, 10 mM EGTA, 50 mM lithium succinate, pH 5.5). The treated sample was hybridized with the AE-labeled pan-bacterial probe by incubating at 55° C. for 1 hour. An HPA assay to detect specific probe hybrids was carried out using standard procedures that will be familiar to those having an ordinary level of skill in the art. A control sample consisted of 50 μl of the lysed specimen and volumes of hydrolysis, neutralization and buffered solutions equivalent to those of the treated sample.
For example, the effect of base treatment with 0.8 N LiOH for 10 minutes at 55° C. was assessed using AE-probe 1. For these treatments, an equal volume of 0.8 N LiOH was added to the sample, and the reaction mixtures were neutralized with the addition of an equivalent volume of 0.8 N HCl prior to buffering and assaying by HPA. 300 μl aliquots of each reaction mixture were read in the luminometer. These procedures employed a single-stranded DNA oligonucleotide having the same sequence that was present in the target bacteria, and that was fully complementary to the hybridization probe undergoing testing, as synthetic target.

[3] = tested on: mecA gene; ribosomal nucleic acids; experiment: HPA, base treatment with and without thermal lysis (Example 4)
Description: The effect of base treatment with and without the heat treatment in lysis buffer was evaluated using a S. aureus specimen (GP1217, ATCC #33591). In this procedure the sample was treated with 0.8 N LiOH and thermal lysis was conducted by heat treatment for 15 minutes. Other conditions were as described above. Probe 1 labeled with acridinium ester was used in this procedure.

[4] = Table 7, lysis 15 minutes, hybridization 45 minutes
[5] = Table 8, lysis 15 minutes, hybridization 45 minutes
[6] = Table 9, lysis 10 minutes, hybridization 20 minutes
[7] = Table 10, neutralize 100 μl 2 N HCl containing 200 mM succinate, hybridize 45 minutes at 60° C.

GGTATGTGGAAGTTAGATTGGGATCATAGCG (AE label, linker between 13 and 14, chemistry not fully specified; listed as Staphylococcus aureus) [Probe 1]
RLU ([1]; Table 6, GP18(Neg), MSSA ATCC #12600): 821 RLU
RLU ([1]; Table 6, GP1214(Neg), MSSA ATCC #29247): 848 RLU
RLU ([1]; Table 6, GP1217(Pos), MRSA ATCC #33591): 53,322 RLU
RLU ([1]; Table 6, GP1218(Pos), MRSA ATCC #43866): 36,730 RLU
GP18(Neg) RLU [1, 4]: 757 RLU
GP1217(Pos) RLU [1, 4]: 25928 RLU
Probe alone Avg RLU [1, 4]: 3668 RLU
GP18(Neg) RLU [1, 5]: 879 RLU
GP1217(Pos) RLU [1, 5]: 11485 RLU
Probe alone Avg RLU [1, 5]: 1123 RLU
GP1217(Pos) RLU [1, 6]: 27256 RLU
Probe alone Avg RLU [1, 6]: 2476 RLU
GP1214(Neg) RLU [1, 7]: 1844 RLU
GP1217(Pos) RLU [1, 7]: 37695 RLU
Probe alone Avg RLU [1, 7]: 2131 RLU
AE-probe 1 Signal (RLU) ([2]; #148, Control (no base treatment)): 34677 RLU
AE-probe 1 Signal (RLU) ([2]; #148, base treated (0.8 N LiOH, 10 minutes, 55° C.)): 42627 RLU
AE-probe 1 Signal (RLU) ([2]; Synthetic target + #148, Control): 53367 RLU
AE-probe 1 Signal (RLU) ([2]; Synthetic target + #148, base treated): 58565 RLU
AE-probe 1 Signal (RLU) ([2]; Synthetic target, Control (no base treatment)): 22195 RLU
AE-probe 1 Signal (RLU) ([2]; Synthetic target, base treated (0.8 N LiOH, 10 minutes, 55° C.)): 21283 RLU
RLU ([3]; GP1217, Base treatment 30 minutes at 60° C.): 16016 RLU
RLU ([3]; GP1217, Thermal lysis 15 minutes at 100° C. + Base treatment 15 minutes at 60° C.): 38017 RLU
RLU ([3]; Table 5, Negative Control): 592 RLU
